Measured values from patent EP0199840B1, “Use of a diamine for the preparation of a softener for erythrocytes” (Barnikol, Wolfgang, Prof. Dr.Dr., priority 1985, dated 1986).

Test system: Erythrozyten
Experiment: Erythrocyte filtration test: specific filtration time (FZsp) of an 8% suspension of purified erythrocytes through 5 µm polycarbonate (Nuclepore) membrane filters
Type: cell-based, gesunden Probanden
Settings: for Wirkung auf FZsp compared with Ausführungsbeispiel 1 (result in words): carried out as in Ausführungsbeispiel 1 (0 to 100 mmol/I; 1,5 Stunden; pH=7,4; 22°C; there FZsp reduced to 30% at 50 mmol/I)
Text: Es wurde nun gefunden, daß es, um die Erythrozyten-weichmachende Wirkung einer Substanz mit Hilfe eines Filtrationstests festzustellen, unerlässlich ist, die Erythrozyten quantitativ von den andern Blutzellen abzutrennen, weil auch sehr geringe Zellverunreinigungen den Test übermä-βig stark stören Daher wurde ein Testverfahren einschließlich eines Reinigungsverfahrens mit Hilfe der Dichtezentrifugation in synthetischem Polysaccharid (Ficoll® 400, Deutsche Pharmazia, Freiburg, Bundesrepublik Deutschland) erarbeitet; als Literaturstelle sei hingewiesen auf: Barnikol et al., Funkt, Biol. Med. 1 (1982), 242-244.
Im Prinzip wird hierbei die sogenannte spezifische Filtrierzeit (FZsp) einer 8%igen Erythrozytensuspension an 5 um Polycarbonat (Nuclepore-^@) Membran-filtern bestimmt. Das Meßverfahren wurde insofern gegenüber der ursprünglichen Vorschrift modifiziert, als nunmehr lediglich die Anfangsgeschwindigkeit gemessen wird, also je nach Dauer variable Tropfenzahlen vermessen werden, sowie der Zeitbedarf für eine bestimmte Tropfenzahl, nämlich 10, bereichnet wurde.
Es gilt die Formel [formula] wobei: • t=Filtrierzeit für 10 Tropfen der Suspension • to=Filtrierzeit für 10 Tropfen des Suspensionsmittels • FZsp ist ein Maß für die Steifigkeit.
Erthrozyten von mehreren gesunden Probanden werden wie oben angegeben (Barnikol et al., 1982) präpariert und eine 8 Vol.-%ige Zellsuspension hergestellt unter Zugabe von Glukose (100 mg/dl). Den Suspensionen werden steigende Mengen von DMAEA von 0 bis 100 mmol/I zugesetzt. Die Proben werden 1,5 Stunden unter langsamen Schwenken belassen bei pH=7,4 und 22°C und danach FZsp gemessen: Bei 50 mmol/I wird FZsp auf 30% des Ausgangswertes verringert.

| Structure (SMILES) | Wirkung auf FZsp compared with Ausführungsbeispiel 1 (result in words) | other results |
| --- | --- | --- |
| CN(C)CCN [DMAEA, Dimethylaminoethylamin] | – | activity at 50000 µM (Homo sapiens, Erythrocyte, 1.5 h, pH 7.4, 50 mmol/I, 8 Vol.-%ige Zellsuspension with Glukose (100 mg/dl), 1,5 Stunden, pH=7,4, 22°C, read-out: FZsp (spezifische Filtrierzeit), % des Ausgangswertes): 30% |
| CC(=O)CCCCn1c(=O)c2c(ncn2C)n(C)c1=O [Pentoxifyllin, 3,7-Dimethyl-1-(5-oxohexyl)-xanthin, reference compound] | – | Wirkung auf FZsp (result in words) (0,1 mmol/1 to 15 mmol/I, 22°C, pH=7,40, FZsp not significantly reduced): unwirksam |
| CCN(CC)CCN(CC)CC [TEEDA, Tetraethylethylendiamin] | gleich Wirkung | – |
| CN(C)CCN(C)C [TMEDA, Tetramethylethylendiamin] | gleiche Wirkung | – |
